The target in test [1] is T1, MCT1 (Homo sapiens, UniProt P53985).
T1 construct: BT-20 cells—a triple negative human breast cancer cell line expressing exclusively MCT1 (confirmed by Western blotting); host or cells: BT-20
T1 sequence (P53985 1-500): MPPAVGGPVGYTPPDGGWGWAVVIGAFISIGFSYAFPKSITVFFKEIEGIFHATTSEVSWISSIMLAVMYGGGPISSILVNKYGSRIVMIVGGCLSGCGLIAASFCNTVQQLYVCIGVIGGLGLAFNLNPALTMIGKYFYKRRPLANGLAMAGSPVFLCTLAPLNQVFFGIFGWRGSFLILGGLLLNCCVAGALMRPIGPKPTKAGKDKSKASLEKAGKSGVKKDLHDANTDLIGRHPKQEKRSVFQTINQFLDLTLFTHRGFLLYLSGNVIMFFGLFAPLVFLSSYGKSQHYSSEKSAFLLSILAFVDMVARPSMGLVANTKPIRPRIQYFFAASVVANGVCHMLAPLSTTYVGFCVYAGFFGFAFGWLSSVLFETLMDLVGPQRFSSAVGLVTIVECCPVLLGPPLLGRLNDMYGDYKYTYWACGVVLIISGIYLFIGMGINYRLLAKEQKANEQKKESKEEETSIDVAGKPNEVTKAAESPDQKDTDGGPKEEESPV
T1 sequence (P35613 140-385 partner limits assumed): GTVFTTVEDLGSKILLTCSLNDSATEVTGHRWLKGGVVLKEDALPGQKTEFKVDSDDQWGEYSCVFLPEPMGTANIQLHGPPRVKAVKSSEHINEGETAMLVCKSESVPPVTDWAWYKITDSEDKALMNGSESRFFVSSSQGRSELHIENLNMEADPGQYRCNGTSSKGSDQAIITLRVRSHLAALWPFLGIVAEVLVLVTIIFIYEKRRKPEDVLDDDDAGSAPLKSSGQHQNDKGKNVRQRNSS
In words: MCT1 transport assay (L-lactate influx, BCECF-AM intracellular pH). The following applies: BT-20 cells expressing exclusively MCT1. It counts as cell-based. The source says:
The following in vitro MCT4 and MCT1 transport assays were used to measure the effect of the compounds on L-lactate influx into two different cell lines: • a) MDA-MB-231 cells—a triple negative human breast cancer cell line expressing exclusively MCT4 (confirmed by Western blotting) was used for the MCT4 transport assay, • b) BT-20 cells—a triple negative human breast cancer cell line expressing exclusively MCT1 (confirmed by Western blotting) was used for the
(§1) The compounds' efficacy in both assays was determined by calculating their IC50 value (the concentration of test compound that inhibited 50% of biological activity).
(§2) MCT4 is predominantly involved in cellular efflux of lactate from the cell, preventing intracellular acidification. In the MCT4 in vitro transport system described here it was possible to drive influx of lactate in the cells and test the compounds efficacy in preventing this process. MCT1 is involved in influx-efflux of lactate, and because it is closely related to MCT4, it is a major selectivity target for MCT4 inhibitor. The MCT1 in vitro transport system described here measured the influx of lactate in the cells and ability of test compounds in preventing this process.
BT-20 (ATCC); Media: EMEM+10% FBS+1% PS
(§3) Tyrode's Solution pH7.4 (NaCl 119 mM; KC1 5 mM; HEPES pH7.4 25 mM; CaCl2 2 mM; MgCl2 2 mM; Glucose 6 g/L)
(§4) The following assay was performed to assess MCT4 (MDA-MB-231 cell line) or MCT1 (BT-20 cell line) activity by monitoring the intracellular pH change that accompanies lactate/proton transport using the pH-sensitive fluorescent dye BCECF-AM.
(§5) Compound preparation: The compounds were serially diluted in 100% DMSO 1:3 for 8 pts and transferred (500 nl) to a 96-well plate by Echo.
(§6) Cell preparation: Cells were briefly rinsed with 10 ml of PBS solution to remove all traces of serum, trypsinized (0.05% Trypsin-EDTA) at 25° C. for 2-3 minutes and washed twice with Tyrode's solution. The cell viability and concentration were determined using Vi-Cell. Cells were resuspended in Tyrode's solution.
(§7) Cells were loaded with the pH sensitive dye BCECF-AM (5 uM final concentration from the 30 mM DMSO stock solution) at 37° C. for 30 minutes before being washed twice to remove excess dye and resuspended to 2 million/ml cells in Tyrode's solution. Cells were seeded into a 96-well plate (200,000 cells/well) directly onto the test compound or a reference compound for 10 minutes at 37° C. Following incubation with test compounds, 25 ul of 30 mM Sodium-L-lactate was added. This addition was performed on the FlexStation III as a part of a real-time kinetic protocol. The ratio of cellular fluorescence at 535 nm after excitation at 490 nm/440 nm was measured over time for baseline (pre-lactate addition) and post-lactate addition for 60 sec with or without compounds present. Inhibitory concentration response curves were generated for compounds and their IC50 values calculated.

Test [2] has as its target T2, MCT4 (Homo sapiens, UniProt O15427).
T2 construct: MDA-MB-231 cells—a triple negative human breast cancer cell line expressing exclusively MCT4 (confirmed by Western blotting); host or cells: MDA-MB-231
T2 sequence (O15427 2-465 limits assumed): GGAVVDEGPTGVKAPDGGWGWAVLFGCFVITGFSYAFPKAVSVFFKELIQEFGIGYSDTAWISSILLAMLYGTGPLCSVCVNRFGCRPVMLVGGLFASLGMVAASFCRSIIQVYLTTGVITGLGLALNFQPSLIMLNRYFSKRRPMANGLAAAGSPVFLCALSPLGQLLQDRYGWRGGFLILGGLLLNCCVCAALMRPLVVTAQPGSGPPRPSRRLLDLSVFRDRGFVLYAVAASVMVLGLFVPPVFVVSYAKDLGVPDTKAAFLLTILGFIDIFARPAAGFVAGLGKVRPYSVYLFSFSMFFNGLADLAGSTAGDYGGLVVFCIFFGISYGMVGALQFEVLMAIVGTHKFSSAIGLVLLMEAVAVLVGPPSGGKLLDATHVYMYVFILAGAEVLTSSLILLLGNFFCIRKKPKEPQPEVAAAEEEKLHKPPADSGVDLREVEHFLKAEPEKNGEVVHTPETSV
The test can be described thus: MCT4 transport assay (L-lactate influx, BCECF-AM intracellular pH). The class given is cell-based. The following applies: MDA-MB-231 cells expressing exclusively MCT4. The protocol:
as §1, §2, §3, §4, §5, §6, §7

As usually defined, the IC50 is the midpoint of a concentration-inhibition curve. A low value points to greater potency in that assay.

`Cc1nc2nc(C)c(O[C@@H]3CCN(c4ccc(-c5ccc(CN6CCOCC6)nn5)cc4)C3)c(C)n2n1` [Compound 1, (R)-4-((6-(4-(3-((2,5,7-trimethyl-[1,2,4]triazolo[1,5-a]pyrimidin-6-yl)oxy)pyrrolidin-1-yl)phenyl)pyridazin-3-yl)methyl)morpholine] displayed an IC50 in test [1] of over 1000 nM.

In the case of `Cc1cn2c(C)c(O[C@@H]3CCN(c4ccc(-c5ccc(CN6CCOCC6)nn5)cc4)C3)c(C)nc2n1` [Compound 2, (R)-4-((6-(4-(3-((2,5,7-trimethylimidazo[1,2-a]pyrimidin-6-yl)oxy)pyrrolidin-1-yl)phenyl)pyridazin-3-yl)methyl)morpholine], the IC50 in test [2] is 100 to 499 nM; in test [1], over 1000 nM. For `Cc1nc2nc(C)c(C)n2c(C)c1O[C@@H]1CCN(c2ccc(-c3ccc(CN4CCOCC4)nn3)cc2)C1` [Compound 3, (R)-4-((6-(4-(3-((2,3,5,7-tetramethylimidazo[1,2-a]pyrimidin-6-yl)oxy)pyrrolidin-1-yl)phenyl)pyridazin-3-yl)methyl)morpholine] the same measures were over 1000 nM and over 1000 nM.

Turning to `Cc1cc2nc(C)c(O[C@@H]3CCN(c4ccc(-c5ccc(CN6CCOCC6)nn5)cc4)C3)c(C)n2n1` [Compound 4, (R)-4-((6-(4-(3-((2,5,7-trimethylpyrazolo[1,5-a]pyrimidin-6-yl)oxy)pyrrolidin-1-yl)phenyl)pyridazin-3-yl)methyl)morpholine], the IC50 in test [2] was under 100 nM; in test [1], over 1000 nM. For `Cc1nc2nc(C)c(O[C@@H]3CCN(c4cnc(C#CCN5CCOCC5)nc4)C3)c(C)n2n1` [Compound 5, (R)-4-(3-(5-(3-((2,5,7-trimethyl-[1,2,4]triazolo[1,5-a]pyrimidin-6-yl)oxy)pyrrolidin-1-yl)pyrimidin-2-yl)prop-2-yn-1-yl)morpholine] the same measures were under 100 nM and over 1000 nM. Taken in the same sequence, the figures for `Cc1nc2nc(C)c(O[C@@H]3CCN(c4cnc(C56CCC(CN7CCOCC7)(CC5)CC6)nc4)C3)c(C)n2n1` [Compound 6, (R)-4-((4-(5-(3-((2,5,7-trimethyl-[1,2,4]triazolo[1,5-a]pyrimidin-6-yl)oxy)pyrrolidin-1-yl)pyrimidin-2-yl)bicyclo[2.2.2]octan-1-yl)methyl)morpholine] were under 100 nM and over 1000 nM.

On to `Cc1nc2nc(C)c(O[C@@H]3CCN(c4ccc(-c5ccc(CN6CC7(COC7)C6)nn5)cc4)C3)c(C)n2n1` [Compound 7, (R)-6-((6-(4-(3-((2,5,7-trimethyl-[1,2,4]triazolo[1,5-a]pyrimidin-6-yl)oxy)pyrrolidin-1-yl)phenyl)pyridazin-3-yl)methyl)-2-oxa-6-azaspiro[3.3]heptane], for which the IC50 in test [2] was under 100 nM; in test [1], over 1000 nM.

Turning to `COC1CN(Cc2ccc(-c3ccc(N4CC[C@@H](Oc5c(C)nc6nc(C)nn6c5C)C4)cc3)nn2)C1` [Compound 8, (R)-6-((1-(4-(6-((3-methoxyazetidin-1-yl)methyl)pyridazin-3-yl)phenyl)pyrrolidin-3-yl)oxy)-2,5,7-trimethyl-[1,2,4]triazolo[1,5-a]pyrimidine], the IC50 in test [2] was under 100 nM; in test [1] it was over 1000 nM.

For `Cc1nc2nc(C)c(O[C@@H]3CCN(c4ccc(-c5ccc(CN6CC(N(C)C)C6)nn5)cc4)C3)c(C)n2n1` [Compound 9, (R)-N,N-dimethyl-1-((6-(4-(3-((2,5,7-trimethyl-[1,2,4]triazolo[1,5-a]pyrimidin-6-yl)oxy)pyrrolidin-1-yl)phenyl)pyridazin-3-yl)methyl)azetidin-3-amine], the half-inhibitory concentration (IC50) in test [2] is under 100 nM; in test [1] it was over 1000 nM. For `Cc1nc2nc(C)c(O[C@@H]3CCN(c4ccc(-c5ccc(CN6CC(S(C)(=O)=O)C6)nn5)cc4)C3)c(C)n2n1` [Compound 10, (R)-2,5,7-trimethyl-6-((1-(4-(6-((3-(methylsulfonyl)azetidin-1-yl)methyl)pyridazin-3-yl)phenyl)pyrrolidin-3-yl)oxy)-[1,2,4]triazolo[1,5-a]pyrimidine] the same measures were under 100 nM and over 1000 nM. For `Cc1nc2nc(C)c(O[C@@H]3CCN(c4ccc(-c5ccc(CN6CC(C(N)=O)C6)nn5)cc4)C3)c(C)n2n1` [Compound 11, (R)-1-((6-(4-(3-((2,5,7-trimethyl-[1,2,4]triazolo[1,5-a]pyrimidin-6-yl)oxy)pyrrolidin-1-yl)phenyl)pyridazin-3-yl)methyl)azetidine-3-carboxamide], the IC50 is 100 to 499 nM in test [2] and over 1000 nM in test [1]. Taken in the same sequence, the figures for `Cc1nc2nc(C)c(O[C@@H]3CCN(c4ccc(-c5ccc(CN6CC(C(=O)N(C)C)C6)nn5)cc4)C3)c(C)n2n1` [Compound 12, (R)-N,N-dimethyl-1-((6-(4-(3-((2,5,7-trimethyl-[1,2,4]triazolo[1,5-a]pyrimidin-6-yl)oxy)pyrrolidin-1-yl)phenyl)pyridazin-3-yl)methyl)azetidine-3-carboxamide] were under 100 nM and over 1000 nM. As to `Cc1nc2nc(C)c(O[C@@H]3CCN(c4ccc(-c5ccc(C(=O)N6CC7(COC7)C6)nn5)cc4)C3)c(C)n2n1` [Compound 13, (R)-(2-oxa-6-azaspiro[3.3]heptan-6-yl)(6-(4-(3-((2,5,7-trimethyl-[1,2,4]triazolo[1,5-a]pyrimidin-6-yl)oxy)pyrrolidin-1-yl)phenyl)pyridazin-3-yl)methanone], the IC50 is under 100 nM in test [2] and over 1000 nM in test [1]. For `COC1CN(C(=O)c2ccc(-c3ccc(N4CC[C@@H](Oc5c(C)nc6nc(C)nn6c5C)C4)cc3)nn2)C1` [Compound 14, (R)-(3-methoxyazetidin-1-yl)(6-(4-(3-((2,5,7-trimethyl-[1,2,4]triazolo[1,5-a]pyrimidin-6-yl)oxy)pyrrolidin-1-yl)phenyl)pyridazin-3-yl)methanone] the same measures were under 100 nM and over 1000 nM.

For `Cc1nc2nc(C)c(O[C@@H]3CCN(c4ccc(-c5ccc(C(=O)N6CC(N(C)C)C6)nn5)cc4)C3)c(C)n2n1` [Compound 15, (R)-(3-(dimethylamino)azetidin-1-yl)(6-(4-(3-((2,5,7-trimethyl-[1,2,4]triazolo[1,5-a]pyrimidin-6-yl)oxy)pyrrolidin-1-yl)phenyl)pyridazin-3-yl)methanone], the values for the IC50 in test [2] and in test [1] were under 100 nM and over 1000 nM, respectively.

The record behind these values is patent US20230192704A1, “MONOCARBOXYLIC ACID TRANSPORTER 4 (MCT4) MODULATORS AND USES THEREOF” (Teon Therapeutics, Inc., priority 2020, published 2023).
